Results reported in PubChem BioAssay (NCI).
“And” between values parts separate entries of the source, which are not always exact repeats. Identical values can stand only once.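 Briefly, cells in 96-well plates were exposed to five compound concentrations for 48 h, and endpoints were estimated by linear interpolation. GI50 is the concentration that inhibits growth by half. The concentration for full growth arrest is given as TGI.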

How the values were obtained:
Experiment in all cases: growth of human tumour cells (NCI), 48 h
U251 CNS = system: U251 CNS
SF-268 CNS = system: SF-268 CNS
SK-MEL-2 melanoma = system: SK-MEL-2 melanoma
SF-539 CNS = system: SF-539 CNS
T-47D breast = system: T-47D breast
SN12C renal = system: SN12C renal
MDA-MB-435 = system: MDA-MB-435

SMILES | TGI (U251 CNS) | TGI (SF-268 CNS) | TGI (SK-MEL-2 melanoma) | TGI (SF-539 CNS) | TGI (T-47D breast) | TGI (SN12C renal) | TGI (MDA-MB-435) | GI50 (U251 CNS) | GI50 (SF-268 CNS) | GI50 (SK-MEL-2 melanoma) | GI50 (SF-539 CNS) | GI50 (SN12C renal) | GI50 (MDA-MB-435) | GI50 (T-47D breast)
CC(C)(C)c1ccc(O)c(CN(Cc2cc(C(C)(C)C)ccc2O)c2ccccc2)c1 | 28.4 µM | 38.3 µM | 33.3 µM | 32 µM | 42.8 µM | 32.1 µM | 36.4 µM |  |  |  |  |  |  | 
COC(=O)C12C3C4C1C1C2C3C41NC(=O)c1csc([C@@H](C[C@H](C(C)C)N(C)C(=O)[C@@H](NC(=O)[C@H]2CCCCN2C)C2CC2)OC(C)=O)n1 (stereo partly drawn) | > 33.3 µM | > 33.3 µM | > 33.3 µM | 0.11 µM |  | > 33.3 µM | 0.00992 µM | 0.0527 µM | 0.0356 µM | 0.11 µM | 0.00574 µM | 0.0242 µM | < 0.00333 µM | 
Cc1ccc(NC(=O)c2sc3nc(C)c(C(O)c4ccccc4)cc3c2N)cc1 (stereo not drawn) | 22.4 µM | > 100 µM | 67.3 µM | 1.3 µM | > 58.3 µM | 25.9 µM |  | 0.384 µM | 2.47 µM | 1.32 µM | 0.287 µM | 0.664 µM |  | 0.471 µM
CC(C)(C)c1cc(NC(=O)Cc2ccc(-c3cnc4cc(-c5cnn(CCN6CCOCC6)c5)ccc4n3)cc2)no1 | 50 µM and > 100 µM and > 3 µM | 50 µM and > 100 µM and > 3 µM | 50 µM and > 100 µM and > 2.53 µM | 3.68 µM and 3.05 µM and > 3 µM | 50 µM and > 100 µM and > 3 µM | 50 µM and > 100 µM and > 3 µM | 50 µM and > 100 µM and > 3 µM | 0.337 µM and 0.456 µM and 0.0964 µM | 0.413 µM and 0.468 µM and 0.0781 µM | 0.347 µM and 0.42 µM and 0.0569 µM | 0.0878 µM and 0.236 µM and 0.344 µM | 0.243 µM and 0.348 µM and 0.0645 µM | 0.356 µM and 0.452 µM and 0.0989 µM | 0.853 µM and 0.822 µM and 0.107 µM
COc1ncc(-c2ccc3ncnc(Nc4cccc(Cl)c4)c3c2)cc1NS(=O)(=O)CCN1CCOCC1 | > 100 µM | > 100 µM |  |  | 0.6 µM | > 100 µM | > 100 µM | 0.824 µM | 0.382 µM |  |  | 0.293 µM | 0.534 µM | < 0.01 µM
CC[CH2][Sn]([Cl])([Cl])[CH2]CC.Oc1ccccc1C=NCCN=Cc1ccccc1O | 12.5 µM | 15.5 µM |  | 24.2 µM | 2.6 µM | 23.8 µM | 24.7 µM | 3.11 µM | 3.63 µM |  | 10.5 µM | 11.3 µM | 7.3 µM | 1.09 µM
Cc1ccc2c3c(c(=O)[nH]c2c1)C1(C(C#N)=C(N)O3)c2cc(Br)ccc2-c2ccc(Br)cc21 | 3.5 µM | 5.08 µM | 6.72 µM | 3.21 µM | 3.78 µM | 4.03 µM | 4.7 µM | 1.81 µM | 2.03 µM | 2.52 µM | 1.73 µM | 1.92 µM | 2.05 µM | 1.68 µM
Fc1ccc(-c2nn3ncccc3c2-c2ccnc(Nc3ccc4c(c3)OCCO4)n2)cc1 | > 25 µM | > 25 µM | 9.71 µM | > 25 µM | 17.9 µM | > 25 µM | > 21.5 µM | 7.72 µM | 7.36 µM | 4.45 µM | 6.59 µM | 4.68 µM | 4.9 µM | 3.95 µM
CON(C)C(=O)N1N=C(c2cc(F)ccc2F)SC1(CCCN)c1ccccc1 (stereo not drawn) | 13.4 µM and 13.7 µM | 17.3 µM and 16 µM | 0.561 µM | 0.351 µM | 18.7 µM and 18.2 µM | 16 µM and 16.1 µM | < 0.01 µM | < 0.01 µM | 0.0217 µM and < 0.01 µM | < 0.01 µM | 0.027 µM | < 0.01 µM | < 0.01 µM | 0.0279 µM and < 0.01 µM
CN1C(=O)c2ccccc2NC(=O)C12O[C@@H]2c1cccc(O)c1 (stereo partly drawn) | > 100 µM | > 100 µM | > 100 µM | > 100 µM | > 100 µM | > 100 µM | > 100 µM |  |  |  |  |  |  | 
O=C(/C=C\n1cnc(-c2cc(C(F)(F)F)cc(C(F)(F)F)c2)n1)NNc1cnccn1 | 12.4 µM | 10.6 µM | 2.84 µM | 1.12 µM | 15.7 µM | 15.4 µM | 1.24 µM | 0.0511 µM | 0.0577 µM | 0.0729 µM | 0.0286 µM | 0.356 µM | 0.0533 µM | 0.143 µM
CCC(=O)c1c(C(F)(F)F)n([O-])c2ccc(C)cc2[n+]1=O | > 50 µM | > 50 µM | > 50 µM | 25.3 µM | 26.8 µM | 19.8 µM | 40.8 µM | 10.7 µM | > 50 µM | 8.35 µM | 9.19 µM | 7.39 µM | 9.53 µM | 6.51 µM
Nc1nc(-c2cccc(Cl)c2)c(-c2ccc3ncccc3n2)s1 | > 25 µM | > 25 µM | > 25 µM | > 25 µM | > 25 µM | > 25 µM | > 25 µM | > 25 µM | > 25 µM | > 25 µM | > 25 µM | > 25 µM | > 25 µM | 5.88 µM
O=C(O)[C@@H]1CCCCN1Cc1cc2cc3c(cc2c2cc(OCc4ccccc4)ccc12)OCO3 | 15.2 µM | 21.2 µM | 37.4 µM | 16.6 µM | 29.5 µM | 7.8 µM | 17.5 µM | 3.8 µM | 2.98 µM | 15.6 µM | 3.87 µM | 2 µM | 3.4 µM | 2.97 µM
COc1ccc2nc3cc(Cl)ccc3c(NCCN)c2c1 | 3.09 µM |  | 31.2 µM |  | 3.59 µM |  | 3.36 µM | 1.71 µM |  | 14.5 µM |  |  | 1.76 µM | 1.83 µM
COc1ccc(OC)c(C(=O)c2oc3ccc(Br)cc3c2N)c1 | 16.4 µM | > 59.5 µM | 4.34 µM | 0.712 µM | > 67.6 µM | 29.3 µM | 0.253 µM | 0.397 µM | 0.725 µM | 0.357 µM | 0.237 µM | 0.648 µM | 0.0466 µM | 0.452 µM
COC(=O)c1c(C)[nH]c(/C=C2\N=C(c3ccc[nH]3)C=C2OC)c1C | 2.49 µM | > 100 µM | 1.27 µM | 2.29 µM | 3.99 µM | > 75.4 µM | 1.46 µM | 0.117 µM | 0.26 µM | 0.328 µM | 0.756 µM | 0.389 µM | 0.108 µM | 0.816 µM
